Results: patent US8871753B2, “Macrocyclic compounds and their use as kinase inhibitors” (Incyte Corporation, priority 2008, dated 2014)

Key:
Assay type in all cases: biochemical
[1] = biological target: T1, human JAK1 (a.a. 837-1142) (Homo sapiens, UniProt P23458); experiment: In vitro JAK kinase assay (HTRF, phosphorylation of a biotinylated peptide), JAK1; details: method AA1 (90 μM ATP) or AA2 (1000 μM ATP), not stated per value; read-out: JAK1 IC50
T1 construct: human JAK1 (a.a. 837-1142); His tag (N); made in house; host or cells: insect cells (baculovirus)
T1 sequence (P23458 849-1154): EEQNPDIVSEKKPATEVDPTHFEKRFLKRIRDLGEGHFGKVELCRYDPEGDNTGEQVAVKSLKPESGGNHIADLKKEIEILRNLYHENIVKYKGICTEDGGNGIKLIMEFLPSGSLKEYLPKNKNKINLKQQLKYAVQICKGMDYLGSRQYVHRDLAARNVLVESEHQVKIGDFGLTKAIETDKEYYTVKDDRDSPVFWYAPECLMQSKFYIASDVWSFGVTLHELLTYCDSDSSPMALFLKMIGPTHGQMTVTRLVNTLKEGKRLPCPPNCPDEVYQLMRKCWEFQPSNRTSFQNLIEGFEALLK
In short: (§1)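 Kinase reactions ran at room temperature for 1 h with ATP matched per isoform (JAK1 90 μM, JAK2 30 μM, JAK3 3 μM). After an EDTA stop, the phosphorylated biotin-peptide was read by HTRF using Eu-Py20 and SA-APC after 40 min binding.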

[2] = biological target: T2, human JAK2 (a.a. 828-1132) (Homo sapiens, UniProt O60674); experiment: In vitro JAK kinase assay (HTRF, phosphorylation of a biotinylated peptide), JAK2; details: method AA1 (30 μM ATP) or AA2 (1000 μM ATP), not stated per value
T2 construct: JAK2 (a.a. 828-1132); His tag (N); made in house; host or cells: insect cells (baculovirus)
T2 sequence (O60674 828-1132): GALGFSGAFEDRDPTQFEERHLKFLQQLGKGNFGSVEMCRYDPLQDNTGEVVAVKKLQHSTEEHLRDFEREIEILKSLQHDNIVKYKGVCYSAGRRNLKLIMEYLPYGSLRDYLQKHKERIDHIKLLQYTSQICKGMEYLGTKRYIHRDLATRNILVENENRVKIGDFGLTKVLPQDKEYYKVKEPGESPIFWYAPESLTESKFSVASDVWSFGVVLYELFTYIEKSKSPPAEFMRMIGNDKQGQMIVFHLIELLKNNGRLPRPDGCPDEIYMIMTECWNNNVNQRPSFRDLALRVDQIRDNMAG
In short: as §1

[3] = biological target: T3, Recombinant Human Anaplastic Lymphoma Kinase (Homo sapiens, UniProt Q9UM73); experiment: ALK HTRF kinase assay; details: compound at 500 nM or 1 mM; 90 μM ATP
T3 construct: purchased Invitrogen, Carlsbad, Calif
T3 sequence (Q9UM73 19-1620): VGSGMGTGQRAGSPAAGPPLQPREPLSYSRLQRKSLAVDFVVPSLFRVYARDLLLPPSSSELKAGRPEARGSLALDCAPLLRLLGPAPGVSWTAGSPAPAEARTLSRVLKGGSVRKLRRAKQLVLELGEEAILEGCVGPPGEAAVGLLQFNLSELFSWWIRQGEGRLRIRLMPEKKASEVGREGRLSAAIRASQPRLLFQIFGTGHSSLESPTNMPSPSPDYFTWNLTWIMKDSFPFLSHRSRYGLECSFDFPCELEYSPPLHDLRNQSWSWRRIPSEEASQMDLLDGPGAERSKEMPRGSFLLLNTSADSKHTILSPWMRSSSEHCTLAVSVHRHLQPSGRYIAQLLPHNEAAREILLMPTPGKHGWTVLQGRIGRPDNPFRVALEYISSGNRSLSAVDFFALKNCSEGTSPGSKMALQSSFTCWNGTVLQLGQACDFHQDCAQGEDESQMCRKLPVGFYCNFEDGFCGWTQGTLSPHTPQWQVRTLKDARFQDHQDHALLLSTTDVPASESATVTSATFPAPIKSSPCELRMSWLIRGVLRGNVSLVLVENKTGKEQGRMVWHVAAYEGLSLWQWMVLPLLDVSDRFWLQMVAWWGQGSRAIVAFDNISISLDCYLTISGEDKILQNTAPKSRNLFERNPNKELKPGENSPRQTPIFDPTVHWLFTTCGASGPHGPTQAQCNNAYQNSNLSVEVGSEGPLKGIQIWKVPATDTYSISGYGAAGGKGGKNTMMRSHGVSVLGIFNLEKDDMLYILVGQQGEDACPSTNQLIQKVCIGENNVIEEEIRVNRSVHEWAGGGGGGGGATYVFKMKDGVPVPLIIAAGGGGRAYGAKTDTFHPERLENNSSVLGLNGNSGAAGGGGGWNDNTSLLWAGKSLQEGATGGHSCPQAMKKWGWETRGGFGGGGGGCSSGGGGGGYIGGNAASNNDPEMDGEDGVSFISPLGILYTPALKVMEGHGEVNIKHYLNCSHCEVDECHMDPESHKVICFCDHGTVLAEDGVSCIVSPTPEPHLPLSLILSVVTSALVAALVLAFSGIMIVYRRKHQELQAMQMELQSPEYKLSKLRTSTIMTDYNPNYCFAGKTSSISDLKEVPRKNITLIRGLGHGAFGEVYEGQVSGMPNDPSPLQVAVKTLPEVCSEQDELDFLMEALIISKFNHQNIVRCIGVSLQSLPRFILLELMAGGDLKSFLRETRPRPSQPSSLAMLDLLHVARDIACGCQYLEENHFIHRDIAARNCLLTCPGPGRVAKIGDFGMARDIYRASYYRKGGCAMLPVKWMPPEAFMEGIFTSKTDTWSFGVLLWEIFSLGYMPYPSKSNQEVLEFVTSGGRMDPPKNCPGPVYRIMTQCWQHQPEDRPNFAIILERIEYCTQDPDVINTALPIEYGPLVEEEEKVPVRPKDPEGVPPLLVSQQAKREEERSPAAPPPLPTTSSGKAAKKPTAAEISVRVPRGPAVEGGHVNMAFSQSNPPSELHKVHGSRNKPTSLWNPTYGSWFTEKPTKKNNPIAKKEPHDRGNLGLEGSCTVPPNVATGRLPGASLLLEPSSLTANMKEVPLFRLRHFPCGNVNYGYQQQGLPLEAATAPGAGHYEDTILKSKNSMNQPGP
In short: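 Readout was HTRF between a Eu-W1024 anti-phosphotyrosine antibody and streptavidin-APC bound to biotinylated peptide phosphorylated by recombinant human ALK. IC50 values came from a four-parameter logistic fit.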

[4] = biological target: T4, human JAK3 (a.a. 781-1124) (Homo sapiens, UniProt P52333); experiment: In vitro JAK kinase assay (HTRF, phosphorylation of a biotinylated peptide), JAK3; details: method AA1 (3 μM ATP) or AA2 (1000 μM ATP), not stated per value
T4 construct: JAK3 (a.a. 781-1124); His tag (N); made in house; host or cells: insect cells (baculovirus)
T4 sequence (P52333 781-1124): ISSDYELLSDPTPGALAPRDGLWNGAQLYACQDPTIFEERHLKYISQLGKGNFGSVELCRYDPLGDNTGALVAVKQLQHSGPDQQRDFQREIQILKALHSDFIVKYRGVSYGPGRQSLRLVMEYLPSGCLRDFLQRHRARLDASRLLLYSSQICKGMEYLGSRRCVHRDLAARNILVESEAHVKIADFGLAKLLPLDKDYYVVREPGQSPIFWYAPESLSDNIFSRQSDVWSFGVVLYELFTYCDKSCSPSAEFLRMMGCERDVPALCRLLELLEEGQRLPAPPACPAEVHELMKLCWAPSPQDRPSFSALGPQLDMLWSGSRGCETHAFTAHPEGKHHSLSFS
In short: as §1

TYK2 = TYK2 (Homo sapiens, UniProt P29597); experiment: TYK2 kinase inhibition (Table A1)
Sequence of TYK2 (P29597 whole entry): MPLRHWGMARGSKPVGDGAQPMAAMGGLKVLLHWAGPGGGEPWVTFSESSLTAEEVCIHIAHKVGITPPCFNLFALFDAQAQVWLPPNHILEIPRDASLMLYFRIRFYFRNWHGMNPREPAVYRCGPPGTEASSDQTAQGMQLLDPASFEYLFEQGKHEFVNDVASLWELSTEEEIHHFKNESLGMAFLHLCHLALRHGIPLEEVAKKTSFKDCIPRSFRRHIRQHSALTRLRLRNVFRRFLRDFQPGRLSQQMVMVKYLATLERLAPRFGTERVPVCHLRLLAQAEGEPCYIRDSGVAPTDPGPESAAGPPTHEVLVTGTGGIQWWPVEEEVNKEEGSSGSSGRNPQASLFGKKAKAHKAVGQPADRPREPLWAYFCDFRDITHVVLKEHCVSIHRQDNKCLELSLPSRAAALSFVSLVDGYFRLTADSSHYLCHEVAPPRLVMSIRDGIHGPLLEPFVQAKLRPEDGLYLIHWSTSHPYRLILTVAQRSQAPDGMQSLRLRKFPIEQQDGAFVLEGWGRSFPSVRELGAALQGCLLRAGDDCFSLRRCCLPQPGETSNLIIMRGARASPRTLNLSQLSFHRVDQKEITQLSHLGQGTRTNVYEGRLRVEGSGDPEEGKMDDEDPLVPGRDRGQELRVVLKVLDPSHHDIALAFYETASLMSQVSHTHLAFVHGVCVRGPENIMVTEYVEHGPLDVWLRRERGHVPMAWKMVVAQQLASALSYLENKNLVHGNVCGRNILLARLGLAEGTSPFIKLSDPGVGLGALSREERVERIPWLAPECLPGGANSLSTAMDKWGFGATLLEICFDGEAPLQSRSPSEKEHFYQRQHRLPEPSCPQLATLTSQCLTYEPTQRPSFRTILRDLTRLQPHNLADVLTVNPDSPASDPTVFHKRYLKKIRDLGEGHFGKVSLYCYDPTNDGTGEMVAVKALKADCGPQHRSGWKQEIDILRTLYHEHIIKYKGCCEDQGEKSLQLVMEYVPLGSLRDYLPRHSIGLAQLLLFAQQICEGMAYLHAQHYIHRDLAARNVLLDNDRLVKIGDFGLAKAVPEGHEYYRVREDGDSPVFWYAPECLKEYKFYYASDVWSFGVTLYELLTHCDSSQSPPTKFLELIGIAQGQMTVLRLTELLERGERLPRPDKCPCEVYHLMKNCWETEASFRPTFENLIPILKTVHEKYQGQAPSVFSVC

Structure (SMILES)	IC50 [1]	IC50 [2]	ALK % of inhibition at a concentration of 500 nM or 1 mM [3]	IC50 [4]	IC50 (TYK2)
Cc1noc(C)c1C(=O)N1CCC(CC(=O)Nc2ccc3cc2CCc2cncc(c2)Nc2ncc(Cl)c(n2)N3)CC1 [Example A156, N-[6-Chloro-2,4,8,18,22-pentaazatetracyclo[14.3.1.1(3,7).1(9,13)]docosa-1(20),3(22),4,6,9(21),10,12,16,18-nonaen-12-yl]-2-{1-[(3,5-dimethylisoxazol-4-yl)carbonyl]piperidin-4-yl}acetamide bis(trifluoroacetate)]	96 nM	917 nM	17%	> 10000 nM	2500 nM
O=C(CC1CCN(c2nc3ccccc3s2)CC1)Nc1ccc2cc1CCc1cncc(c1)Nc1ncc(Cl)c(n1)N2 [Example A157, 2-[1-(1,3-Benzothiazol-2-yl)piperidin-4-yl]-N-[6-chloro-2,4,8,18,22-pentaazatetracyclo[14.3.1.1(3,7).1(9,13)]docosa-1(20),3(22),4,6,9(21),10,12,16,18-nonaen-12-yl]acetamide tris(trifluoroacetate)]	2.6 nM	102 nM	15%	> 10000 nM	617 nM
O=C(CC1CCN(c2nc3cccnc3o2)CC1)Nc1ccc2cc1CCc1cncc(c1)Nc1ncc(Cl)c(n1)N2 [Example A158, N-[6-Chloro-2,4,8,18,22-pentaazatetracyclo[14.3.1.1(3,7).1(9,13)]docosa-1(20),3(22),4,6,9(21),10,12,16,18-nonaen-12-yl]-2-(1-[1,3]oxazolo[5,4-b]pyridin-2-ylpiperidin-4-yl)acetamide tris(trifluoroacetate)]	11 nM	244 nM	18%	> 10000 nM	675 nM
O=C(CC1CCN(c2ncc(F)cn2)CC1)Nc1ccc2cc1CCc1cncc(c1)Nc1ncc(Cl)c(n1)N2 [Example A169, N-[6-Chloro-2,4,8,18,22-pentaazatetracyclo[14.3.1.1(3,7).1(9,13)]docosa-1(20),3(22),4,6,9(21),10,12,16,18-nonaen-12-yl]-2-[1-(5-fluoropyrimidin-2-yl)piperidin-4-yl]acetamide tris(trifluoroacetate)]	26 nM	131 nM	23%	> 1000 nM	319 nM
O=C(CC1CCN(c2ccccn2)CC1)Nc1ccc2cc1CCc1cncc(c1)Nc1ncc(Cl)c(n1)N2 [Example A170, N-[6-Chloro-2,4,8,18,22-pentaazatetracyclo[14.3.1.1(3,7).1(9,13)]docosa-1(20),3(22),4,6,9(21),10,12,16,18-nonaen-12-yl]-2-(1-pyridin-2-ylpiperidin-4-yl)acetamide tris(trifluoroacetate)]	7.8 nM	165 nM	37%	> 1000 nM	250 nM
O=C(CC1CCN(c2cnccn2)CC1)Nc1ccc2cc1CCc1cncc(c1)Nc1ncc(Cl)c(n1)N2 [Example A171, N-[6-Chloro-2,4,8,18,22-pentaazatetracyclo[14.3.1.1(3,7).1(9,13)]docosa-1(20),3(22),4,6,9(21),10,12,16,18-nonaen-12-yl]-2-(1-pyrazin-2-ylpiperidin-4-yl)acetamide tris(trifluoroacetate)]	12 nM	118 nM	29%	> 1000 nM	300 nM
O=C(CC1CCN(c2ncccn2)CC1)Nc1ccc2cc1CCc1cncc(c1)Nc1ncc(Cl)c(n1)N2 [Example A172, N-[6-Chloro-2,4,8,18,22-pentaazatetracyclo[14.3.1.1(3,7).1(9,13)]docosa-1(20),3(22),4,6,9(21),10,12,16,18-nonaen-12-yl]-2-(1-pyrimidin-2-ylpiperidin-4-yl)acetamide tris(trifluoroacetate)]	11 nM	199 nM	28%	> 1000 nM	237 nM
Cc1ccc(N2CCC(CC(=O)Nc3ccc4cc3CCc3cncc(c3)Nc3ncc(Cl)c(n3)N4)CC2)nn1 [Example A173, N-[6-Chloro-2,4,8,18,22-pentaazatetracyclo[14.3.1.1(3,7).1(9,13)]docosa-1(20),3(22),4,6,9(21),10,12,16,18-nonaen-12-yl]-2-[1-(6-methylpyridazin-3-yl)piperidin-4-yl]acetamide tris(trifluoroacetate)]	8 nM	89 nM	40%	> 1000 nM	105 nM
O=C(CC1CCN(c2nncs2)CC1)Nc1ccc2cc1CCc1cncc(c1)Nc1ncc(Cl)c(n1)N2 [Example A174, tris(trifluoroacetate)]	4.1 nM	124 nM	33%	> 1000 nM	72 nM

These reach a lower IC50 [1]. Values come first.

IC50 [1]	IC50 [2]	ALK % of inhibition at a concentration of 500 nM or 1 mM [3]	IC50 [4]	IC50 (TYK2)	Structure (SMILES)
0.5 nM	1.1 nM	52%	> 100 nM	5.7 nM	COc1cccc(NC(=O)N2CCC(CC(=O)Nc3ccc4cc3CCc3cncc(c3)Nc3ncc(Cl)c(n3)N4)CC2)c1 [Example A153, 4-(2-{[6-chloro-2,4,8,18,22-pentaazatetracyclo[14.3.1.1(3,7).1(9,13)]docosa-1(20),3(22),4,6,9(21),10,12,16,18-nonaen-12-yl]amino}-2-oxoethyl)-N-(3-methoxyphenyl)piperidine-1-carboxamide bis(trifluoroacetate)]
0.6 nM	2.6 nM	51%	> 100 nM	3.1 nM	COc1ccc(NC(=O)N2CCC(CC(=O)Nc3ccc4cc3CCc3cncc(c3)Nc3ncc(Cl)c(n3)N4)CC2)cc1 [Example A154, 4-(2-{[6-Chloro-2,4,8,18,22-pentaazatetracyclo[14.3.1.1(3,7).1(9,13)]docosa-1(20),3(22),4,6,9(21),10,12,16,18-nonaen-12-yl]amino}-2-oxoethyl)-N-(4-methoxyphenyl)piperidine-1-carboxamide bis(trifluoroacetate)]
2.4 nM	4.2 nM	47%	> 100 nM	3.8 nM	O=C(CC1CCN(C(=O)NCc2ccccc2)CC1)Nc1ccc2cc1CCc1cncc(c1)Nc1ncc(Cl)c(n1)N2 [Example A155, N-Benzyl-4-(2-{[6-chloro-2,4,8,18,22-pentaazatetracyclo[14.3.1.1(3,7).1(9,13)]docosa-1(20),3(22),4,6,9(21),10,12,16,18-nonaen-12-yl]amino}-2-oxoethyl)piperidine-1-carboxamide bis(trifluoroacetate)]
0.5 nM	36 nM	29%	> 100 nM	3 nM	Cc1cc(C(=O)N2CCC(CC(=O)Nc3ccc4cc3CCc3cncc(c3)Nc3ncc(Cl)c(n3)N4)CC2)n[nH]1 [Example A163, N-[6-Chloro-2,4,8,18,22-pentaazatetracyclo[14.3.1.1(3,7).1(9,13)]docosa-1(20),3(22),4,6,9(21),10,12,16,18-nonaen-12-yl]-2-{1-[(5-methyl-1H-pyrazol-3-yl)carbonyl]piperidin-4-yl}acetamide bis(trifluoroacetate)]
